Some test systems named below: 786-0 renal; EKVX NSCLC; HCT-116 colon; HOP-92 NSCLC; IGROV1 ovarian; M14 melanoma; MCF7 breast; NCI-H522 lung; SK-OV-3 ovarian; SN12C renal.
Assay in all cases: growth of human tumour cells (NCI), 48 h

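Step 1: Grow cells in 96-well plates. Step 2: Expose to compound for 48 hours at 5 concentrations. Step 3: Interpolate endpoints linearly; if unreached, use highest concentration. GI50 is the concentration that inhibits growth by half. Definition used: TGI = concentration required for complete inhibition of growth.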

`CCN1CCN(C(=O)[C@]23CCC(C)(C)C[C@@H]2C2=CC[C@@H]4[C@@]5(C)C/C(=C/c6ccncc6)C(=O)C(C)(C)[C@@H]5CC[C@@]4(C)[C@]2(C)CC3)CC1`: the GI50 in the assay on 786-0 renal was 1.68 µM; in the assay with EKVX NSCLC, 1.49 µM; in the assay on HCT-116 colon, 1.35 µM; with HOP-92 NSCLC, 1.07 µM; in the assay on IGROV1 ovarian, 1.6 µM; in the assay with M14 melanoma it was 1.54 µM. Also, the GI50 in the assay with MCF7 breast is 1.08 µM; in the assay on NCI-H522 lung, 1.53 µM; in the assay with SK-OV-3 ovarian it was 2.1 µM; in the assay with SN12C renal, 1.31 µM. For the same compound, the TGI was found to be 3.15 µM with 786-0 renal; 3.01 µM in the assay with EKVX NSCLC; 2.87 µM with HCT-116 colon; 2.39 µM in the assay with HOP-92 NSCLC; 3.13 µM with IGROV1 ovarian; 3.17 µM with M14 melanoma. Also, the TGI with MCF7 breast stood at 2.53 µM; in the assay on NCI-H522 lung it was 3.39 µM; in the assay on SK-OV-3 ovarian, 4.41 µM; in the assay with SN12C renal, 2.66 µM.

With `c1ccc2c3c([nH]c2c1)C(c1ccc(C2NCCc4c2[nH]c2ccccc42)cc1)NCC3` (centres undefined), the GI50 with 786-0 renal was 1.75 µM; with EKVX NSCLC it was 1.42 µM; in the assay on HCT-116 colon it was 0.17 µM; in the assay with HOP-92 NSCLC, 0.731 µM; in the assay on IGROV1 ovarian, 1.34 µM; with M14 melanoma it was 0.403 µM. Besides, the GI50 with MCF7 breast is 0.393 µM; in the assay with NCI-H522 lung, 0.414 µM; in the assay with SK-OV-3 ovarian it was 1.88 µM; with SN12C renal it was 1.47 µM. Moreover, the TGI in the assay on 786-0 renal stood at 3.38 µM; in the assay on EKVX NSCLC, 3.39 µM; in the assay on HCT-116 colon, 0.335 µM; with HOP-92 NSCLC, 2.89 µM; in the assay with IGROV1 ovarian, 2.83 µM; with M14 melanoma, 1.58 µM. Further, the TGI in the assay with MCF7 breast stood at 1.75 µM; in the assay with NCI-H522 lung, 1.49 µM; with SK-OV-3 ovarian it was 4.14 µM; in the assay with SN12C renal, 3.05 µM.

For the compound `Cc1cc(N2CCN(C)CC2)n2nc(-c3ccc(Cl)cc3)nc2n1`, the TGI with 786-0 renal, in the assay on EKVX NSCLC, in the assay on HCT-116 colon, in the assay with HOP-92 NSCLC, in the assay with IGROV1 ovarian and with M14 melanoma was over 100 µM in each case. For the same compound, the TGI in the assay with MCF7 breast, in the assay with NCI-H522 lung, with SK-OV-3 ovarian and with SN12C renal was over 100 µM in each case.

In the case of `CC(=O)[O][Hg][c]1c(C)c(C)cc(C)c1C`, the GI50 in the assay with 786-0 renal was 1.76 µM; in the assay on EKVX NSCLC, 1.25 µM; in the assay on HCT-116 colon it was 1.85 µM; with HOP-92 NSCLC, 0.128 µM; in the assay with IGROV1 ovarian, 0.703 µM; in the assay with M14 melanoma it was 1.36 µM. The GI50 is 0.873 µM in the assay on MCF7 breast, 0.194 µM with NCI-H522 lung, 3.63 µM in the assay with SK-OV-3 ovarian and 1.94 µM in the assay with SN12C renal. For the same compound, the TGI is 3.28 µM with 786-0 renal; 3.11 µM in the assay on EKVX NSCLC; 3.66 µM with HCT-116 colon; 0.705 µM in the assay with HOP-92 NSCLC; 2.37 µM with IGROV1 ovarian; 2.88 µM in the assay on M14 melanoma. Further, the TGI in the assay with MCF7 breast is 2.86 µM; in the assay with NCI-H522 lung, 0.486 µM; in the assay with SK-OV-3 ovarian, 6.96 µM; in the assay with SN12C renal, 4.48 µM.

On to `CCc1nc(N)nc(N)c1-c1ccc(N2CCNCC2)cc1`, for which the TGI was over 100 µM in the assay on 786-0 renal; over 100 µM in the assay on EKVX NSCLC; over 100 µM with HCT-116 colon; over 100 µM with HOP-92 NSCLC; over 100 µM in the assay with IGROV1 ovarian; over 83.9 µM with M14 melanoma. Moreover, the TGI in the assay on MCF7 breast is over 94.3 µM; with NCI-H522 lung it was over 100 µM; with SK-OV-3 ovarian, over 100 µM; in the assay on SN12C renal it was over 100 µM.

Take `O=c1[nH]cnc2c1nnn2CCCCCCCCCCCCn1nnc2c(=O)[nH]cnc21`: the TGI was 60.5 µM with 786-0 renal; over 82.5 µM in the assay with EKVX NSCLC; over 84.1 µM with HCT-116 colon; 53 µM in the assay with HOP-92 NSCLC; over 77.8 µM with IGROV1 ovarian; over 100 µM in the assay on M14 melanoma. The TGI in the assay on MCF7 breast was over 100 µM; in the assay on NCI-H522 lung, 63 µM; in the assay on SK-OV-3 ovarian, 38.5 µM; with SN12C renal, over 100 µM.

Turning to `COc1ccc(N(C)c2nc(N)nc3sc4c(c23)CCCC4)cc1`, the GI50 is under 0.01 µM with 786-0 renal; under 0.01 µM with EKVX NSCLC; under 0.01 µM in the assay with HCT-116 colon; under 0.0187 µM with HOP-92 NSCLC; under 0.01 µM with IGROV1 ovarian; under 0.01 µM with M14 melanoma. Besides, the GI50 is under 0.01 µM with MCF7 breast, under 0.01 µM in the assay with NCI-H522 lung, under 0.013 µM with SK-OV-3 ovarian and under 0.01 µM in the assay with SN12C renal. In addition, the TGI in the assay on 786-0 renal came out at 13.2 µM; in the assay on EKVX NSCLC it was 18.7 µM; in the assay on HCT-116 colon, 11.3 µM; with HOP-92 NSCLC it was 6.81 µM; in the assay with IGROV1 ovarian, 13 µM; in the assay with M14 melanoma, 11.4 µM. Further, the TGI in the assay on MCF7 breast was 14.8 µM; with SK-OV-3 ovarian it was 14.2 µM; in the assay with SN12C renal it was 14 µM.

In the case of `O=S(=O)(c1cnccc1N1CCN(CCO)CC1)N1CCCC1`, the TGI in the assay with 786-0 renal, in the assay with EKVX NSCLC, with HCT-116 colon, with HOP-92 NSCLC, in the assay with IGROV1 ovarian and in the assay on M14 melanoma was over 100 µM each time. The TGI in the assay on MCF7 breast, in the assay on NCI-H522 lung, with SK-OV-3 ovarian and in the assay on SN12C renal was over 100 µM each time.

As for `O=C1Cc2cc(C(=O)NC3C[C@H]4CC[C@@H](C3)N4S(=O)(=O)CC3CCN(CCCC(F)(F)F)CC3)c(Cl)cc2N1` (some centres undefined), the GI50 was over 100 µM in the assay with 786-0 renal; over 100 µM with EKVX NSCLC; over 100 µM in the assay on HCT-116 colon; 67.7 µM in the assay on HOP-92 NSCLC; over 100 µM in the assay with IGROV1 ovarian; over 100 µM in the assay with M14 melanoma. Also, the GI50 in the assay with MCF7 breast, in the assay with NCI-H522 lung, with SK-OV-3 ovarian and with SN12C renal was over 100 µM throughout. The TGI in the assay on 786-0 renal, in the assay on EKVX NSCLC, in the assay on HCT-116 colon, in the assay with HOP-92 NSCLC, in the assay with IGROV1 ovarian and in the assay on M14 melanoma was over 100 µM each time. Besides, the TGI in the assay with MCF7 breast, in the assay on NCI-H522 lung, in the assay on SK-OV-3 ovarian and in the assay on SN12C renal was over 100 µM each time.

For the origin of these results see PubChem BioAssay (NCI).
